# Data from US11033567B2, “5-aza-2′-deoxycytidine and methods of use thereof for promoting wound healing and regeneration” (THE TRUSTEES OF THE UNIVERSITY OF PENNSYLVANIA, priority 2014, dated 2021).
# Entries after “also recorded” stand apart in the source; their conditions may differ.
# How the values were obtained:
# [1] = test system: C57B mice carrying full-thickness skin wounds; assay: Effect of systemic Aza-dC treatment (injection) on wound healing and hair follicle regeneration; type: in vivo
# From the text: Determining the Effect of Systemic Aza-dC Treatment on Wound Healing and Regeneration:
# The dermis was fixed in acetone overnight.
# [2] = test system: C57B mice carrying full-thickness skin wounds; assay: Effect of topical Aza-dC treatment on wound healing and hair follicle regeneration; type: in vivo; conditions: for hair follicle (HF) neogenesis compared to the vehicle control / hair follicle regeneration: topical; for hair follicle (HF) neogenesis compared to the vehicle control: once a day for 2 consecutive days (SD0 & SD1); for hair follicle regeneration: once a day for 5 consecutive days
# From the text: Determining the Effect of Topical Aza-dC Treatment on Wound Healing and Regeneration: […]
compound,measurement,setting,value
"Nc1ncn([C@H]2C[C@H](O)[C@@H](CO)O2)c(=O)n1 [Aza-dC, 5-aza-2′-deoxycytidine]",regeneration of hair follicles in healed wounds,"[1]; injection, 30 μg per gram body weight once a day for 5 consecutive days (SD0 to SD4)",greatly inhibited
same,hair follicle regeneration,[1]; single injection of 30 μg per gram body weight on SD0,no effect
same,hair follicle regeneration,[1]; single injection of 30 μg per gram body weight on SD1,inhibition on hair follicle regeneration; also recorded: greatly inhibited
same,inhibitory effect on wound-induced hair follicle regeneration,"[2]; topical application, unlike systemic treatment",little inhibitory effect
same,stimulatory effect on regeneration,[2]; topical treatment extended to 5 days (SD0 to SD4),diminished
same,hair follicle (HF) neogenesis compared to the vehicle control,[2]; all doses tested,greatly enhanced
same,hair follicle (HF) neogenesis compared to the vehicle control,[2]; highest tested dose 10 μg,strongest enhancement
same,hair follicle regeneration,[2]; 1 μg,little effect
same,hair follicle regeneration,[2]; 5 μg,little effect
same,hair follicle regeneration,[2]; 10 μg,still enhanced
